Where two headings read alike, the source gives them in different places.
Legend:
5-HT4 Receptor [1] = target: T1, 5-HT4 Receptor (Cavia porcellus, UniProt O70528); assay: 5-HT4 receptor binding of the isomers of compound I, radiolabel displacement method; settings: read-out: binding constant Ki
[2] = Metabolism in Fresh Human Blood; format: in vitro ADME; settings: for Half-life: 100 µM
Procedure: Fresh blood was collected into heparinized tubes from 3 human donors and blood was stored on ice until incubation. Separate aliquots of blood from each donor were pipetted into 1.5 mL centrifuge tubes and the tubes were pre-incubated in a shaking water bath at 37° C. for 5 minutes. The reaction was initiated by the addition of 10 μL of the appropriate test compound stock to each tube (final concentration=100 μM). Incubations were quenched after 0, 5, 15, 30 and 60 minutes, by the addition of acetonitrile ([…]), centrifuged at 12,000 rpm for 2 minutes and the supernatant analyzed on an Agilent 1100 HPLC system. Separations were accomplished on a Keystone Intersil ODS2, 250×4.6 mm, […] column. The aqueous mobile phase consisted of 20 mM ammonium acetate buffer (pH 5.7) and the organic phase acetonitrile. A gradient was used: initial condition consisted of 20% acetonitrile for 1 minute. […] The system was then recycled to initial conditions over the course of 1 minute and held there for 4 minutes before the next injection. […] The results were expressed as amount of initial compound remaining and data subjected to kinetic analysis using WinNonLin. The half-lives for the individual compounds are given below in Table 6.

[3] = tested on: esterases in human plasma
[4] = format: in vitro ADME, human; settings: for dependence of metabolism on NADPH / CYP450: microsomes
Procedure: ATI-7505 (2 μM) was incubated with human microsomal protein (1 mg) in the presence or absence of NADPH regenerating system (cofactor).
Thus the major biotransformation pathway for ATI-7505 occurs independently of CYP450 enzymes.
The metabolism of these compounds was studied in pooled human microsomes in the presence and absence of the Cytochrome P-450 cofactor NADPH and both the disappearance of parent and the appearance of the corresponding acid metabolite, i.e., the corresponding compound-II isomer, monitored with time.
In this experiment, the amount of substrate (compounds III, IV, V, and VI) remaining in the reaction after 5, 60, and 90 minutes were evaluated by a tandem HPLC-MS method. This remaining amount was correlated with the appearance of the metabolite compound II.

fasted, conscious dogs = settings: for antral and small bowel contractility, colonic motor activity / prokinetic effects in the dog gut: IV and PO; for migrating motor complex (MMC) characteristics: antrum, proximal, mid and distal small intestine
2D6 = 2D6 (Homo sapiens, UniProt P10635)
Chain of 2D6 (P10635 whole entry): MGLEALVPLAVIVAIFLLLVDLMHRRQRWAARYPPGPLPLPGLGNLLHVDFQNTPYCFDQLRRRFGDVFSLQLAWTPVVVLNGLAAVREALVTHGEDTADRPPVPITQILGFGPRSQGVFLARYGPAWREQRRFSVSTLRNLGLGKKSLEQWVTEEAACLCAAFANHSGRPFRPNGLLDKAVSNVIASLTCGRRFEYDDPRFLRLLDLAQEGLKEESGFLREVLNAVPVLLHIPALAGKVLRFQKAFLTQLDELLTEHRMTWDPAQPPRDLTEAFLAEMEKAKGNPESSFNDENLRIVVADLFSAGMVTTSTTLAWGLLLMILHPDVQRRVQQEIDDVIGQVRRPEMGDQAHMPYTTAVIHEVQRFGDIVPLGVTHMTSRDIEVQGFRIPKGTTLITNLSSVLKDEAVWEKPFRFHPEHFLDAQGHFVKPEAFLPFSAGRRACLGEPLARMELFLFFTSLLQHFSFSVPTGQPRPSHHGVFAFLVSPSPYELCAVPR

[5] = target: T2, human IKr (HERG K+ channels) (Homo sapiens, UniProt Q12809); assay: whole cell patch-clamp of IKr in HEK-293 cells expressing the HERG K+ channels; format: cell-based
T2 construct: expressed in transfected cells; host or cells: HEK-293
T2 sequence (Q12809 whole entry): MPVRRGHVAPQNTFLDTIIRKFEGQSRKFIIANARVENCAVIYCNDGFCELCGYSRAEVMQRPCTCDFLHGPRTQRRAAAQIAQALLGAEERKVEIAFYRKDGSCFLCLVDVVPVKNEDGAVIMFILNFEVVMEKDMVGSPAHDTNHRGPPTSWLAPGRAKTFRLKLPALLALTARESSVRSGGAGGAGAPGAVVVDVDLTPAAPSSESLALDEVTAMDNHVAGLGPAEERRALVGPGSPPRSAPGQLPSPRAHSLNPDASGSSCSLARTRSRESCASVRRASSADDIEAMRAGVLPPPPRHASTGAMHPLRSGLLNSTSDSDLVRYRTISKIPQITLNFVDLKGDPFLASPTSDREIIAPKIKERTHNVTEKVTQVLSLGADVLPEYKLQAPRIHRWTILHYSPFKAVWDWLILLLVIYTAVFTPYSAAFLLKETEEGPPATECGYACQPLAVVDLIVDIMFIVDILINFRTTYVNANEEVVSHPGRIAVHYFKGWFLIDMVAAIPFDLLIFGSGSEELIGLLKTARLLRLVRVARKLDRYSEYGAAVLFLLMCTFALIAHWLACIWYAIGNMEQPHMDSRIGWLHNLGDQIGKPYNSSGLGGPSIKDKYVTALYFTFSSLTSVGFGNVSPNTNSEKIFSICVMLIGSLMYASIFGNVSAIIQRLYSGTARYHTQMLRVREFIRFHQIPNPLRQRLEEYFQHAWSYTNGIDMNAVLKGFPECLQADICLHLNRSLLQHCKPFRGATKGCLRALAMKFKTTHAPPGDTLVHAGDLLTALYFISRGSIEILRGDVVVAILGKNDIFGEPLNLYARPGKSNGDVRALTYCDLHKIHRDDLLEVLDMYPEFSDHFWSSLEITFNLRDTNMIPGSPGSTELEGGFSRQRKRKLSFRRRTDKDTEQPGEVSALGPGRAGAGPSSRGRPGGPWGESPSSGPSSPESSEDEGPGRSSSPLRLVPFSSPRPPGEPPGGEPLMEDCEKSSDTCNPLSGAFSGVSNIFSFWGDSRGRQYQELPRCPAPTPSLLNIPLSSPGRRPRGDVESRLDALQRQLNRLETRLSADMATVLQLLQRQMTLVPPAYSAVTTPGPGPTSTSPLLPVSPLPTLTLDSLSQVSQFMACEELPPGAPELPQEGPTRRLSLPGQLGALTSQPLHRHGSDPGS
Procedure: The test system was mammalian HEK-293 cells expressing the HERG K+ channels, in which the potassium current was measured by whole cell patch-clamp technique.

human 5-HT4 receptor = target: T3, human 5-HT4 receptor (Homo sapiens, UniProt Q13639); assay: adenylyl cyclase stimulation in cells engineered to stably express human 5-HT4 receptor; format: cell-based; settings: for Efficacy % of 5HT (serotonin): estimated Emax relative to 5-HT
T3 construct: expressed in transfected cells
T3 sequence (Q13639 whole entry): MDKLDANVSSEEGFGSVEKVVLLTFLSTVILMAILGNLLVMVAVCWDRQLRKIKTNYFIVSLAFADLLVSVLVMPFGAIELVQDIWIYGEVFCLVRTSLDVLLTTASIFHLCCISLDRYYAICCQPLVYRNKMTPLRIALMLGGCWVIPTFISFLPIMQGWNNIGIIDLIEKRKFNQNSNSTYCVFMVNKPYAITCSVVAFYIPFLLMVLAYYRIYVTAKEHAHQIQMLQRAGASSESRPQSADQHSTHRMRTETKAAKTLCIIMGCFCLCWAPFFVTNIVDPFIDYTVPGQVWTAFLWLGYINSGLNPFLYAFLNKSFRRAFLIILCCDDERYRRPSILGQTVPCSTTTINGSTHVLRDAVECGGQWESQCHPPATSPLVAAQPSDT
Source text: ARYx performed in vitro assays based on adenylyl cyclase stimulation in cells engineered to stably express human 5-HT4 receptor. […] [table]

[6] = July 1993 to December 1999; cited from earlier work
5-HT4 Receptor [7] = target: T1, 5-HT4 Receptor; assay: 5-HT4 Receptor Binding, Guinea Pig Striatum, [3H]GR113808; set-up: Guinea Pig Striatum; from tissue; host or cells: guinea pig striatum
[8] = in vivo; cited from earlier work
[9] = tested on: isolated, perfused guinea pig hearts
CYP3A4 = CYP3A4 (Homo sapiens, UniProt P08684); settings: recombinant enzyme
Chain of CYP3A4 (P08684 whole entry): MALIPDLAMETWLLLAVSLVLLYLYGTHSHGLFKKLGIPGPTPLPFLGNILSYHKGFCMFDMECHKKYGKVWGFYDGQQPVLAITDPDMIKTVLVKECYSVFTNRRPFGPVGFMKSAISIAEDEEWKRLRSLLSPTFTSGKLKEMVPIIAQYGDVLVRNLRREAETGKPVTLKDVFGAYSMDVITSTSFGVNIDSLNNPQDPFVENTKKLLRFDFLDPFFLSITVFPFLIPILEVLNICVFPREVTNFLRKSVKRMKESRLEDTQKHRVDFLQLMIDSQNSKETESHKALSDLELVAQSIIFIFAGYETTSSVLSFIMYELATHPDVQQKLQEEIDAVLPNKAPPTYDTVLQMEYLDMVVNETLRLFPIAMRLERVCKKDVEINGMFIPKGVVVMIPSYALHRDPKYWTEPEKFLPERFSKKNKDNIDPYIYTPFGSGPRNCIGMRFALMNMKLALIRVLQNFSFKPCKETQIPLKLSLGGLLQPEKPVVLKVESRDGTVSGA

2C9 = 2C9 (Homo sapiens, UniProt P11712)
Chain of 2C9 (P11712 whole entry, the tested form may be a part): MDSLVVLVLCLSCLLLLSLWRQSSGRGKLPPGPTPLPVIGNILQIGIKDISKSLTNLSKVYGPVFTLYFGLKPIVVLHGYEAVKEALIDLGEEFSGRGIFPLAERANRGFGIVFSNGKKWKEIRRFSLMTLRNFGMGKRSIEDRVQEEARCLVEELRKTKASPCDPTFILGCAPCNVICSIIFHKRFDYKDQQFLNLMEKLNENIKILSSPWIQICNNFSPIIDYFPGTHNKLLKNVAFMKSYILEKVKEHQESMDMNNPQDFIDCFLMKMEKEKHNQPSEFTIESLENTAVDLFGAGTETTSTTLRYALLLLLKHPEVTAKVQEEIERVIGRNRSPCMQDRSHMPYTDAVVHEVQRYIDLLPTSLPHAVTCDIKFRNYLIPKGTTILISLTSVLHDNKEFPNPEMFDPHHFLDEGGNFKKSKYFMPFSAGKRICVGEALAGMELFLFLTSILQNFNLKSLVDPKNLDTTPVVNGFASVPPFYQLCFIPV

fed dogs = assay: gastric emptying in fed conscious dogs (time of MMC return); settings: IV infusion over 20 minutes before a solid meal
Procedure: The data shown are normalized to the averaged vehicle control times of MMC return values.
The objective of the experiments was to measure the time required for migrating motor contractions (MMCs) to return to baseline following ingestion of a solid meal. A drug-induced shortening of MMC return time indicated an early end of the digestive period due to accelerated gastric emptying. […] At the end of the drug infusion, the dogs were fed a meal. Gut contractions were recorded for a minimum of 60 minutes prior to the start of the drug infusion to establish the fasting state and to identify the onset of MMC in the duodenum, and at least 30 minutes after the return of MMC in the duodenum. Quantitative comparisons of the treatments were based on the time of MMC return as an index of gastric emptying following ingestion of a solid meal.

[10] = tested at 10, 100, 1,000, and 10,000 nM

T1 sequence (O70528 whole entry): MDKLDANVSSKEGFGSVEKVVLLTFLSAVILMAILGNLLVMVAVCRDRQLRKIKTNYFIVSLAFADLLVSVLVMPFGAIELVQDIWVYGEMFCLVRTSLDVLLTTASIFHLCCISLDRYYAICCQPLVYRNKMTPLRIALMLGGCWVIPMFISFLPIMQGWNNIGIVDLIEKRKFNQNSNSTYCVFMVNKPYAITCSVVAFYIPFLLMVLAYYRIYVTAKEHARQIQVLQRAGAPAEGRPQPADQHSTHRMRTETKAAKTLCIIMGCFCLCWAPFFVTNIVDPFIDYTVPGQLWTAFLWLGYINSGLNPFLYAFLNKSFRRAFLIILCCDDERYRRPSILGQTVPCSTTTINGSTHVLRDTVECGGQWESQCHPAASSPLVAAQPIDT

## COc1cc(N)c(Cl)cc1C(=O)N[C@@H]1CCN(CCCCCC(=O)O[C@@H]2CN3CCC2CC3)C[C@@H]1OC [Compound VI, (3S,4R,3′S)-6-[4-(4-Amino-5-chloro-2-methoxy-benzoylamino)-3-methoxy-piperidin-1-yl]-hexanoic acid 1-aza-bicyclo[2.2.2]oct-3-yl ester]
5-HT4 Receptor [1]
  Ki: 3.4 nM
[2]; blood
  Half-life: >60 min
[2]; blood, Half-life (min)
  half-life at 100 µM: > 60 min
[3]
  rate of metabolism by esterases in human plasma: undergo a much slower metabolism
[4]
  hydrolysis by esterase in human microsomes: quite stable with time

## COc1cc(N)c(Cl)cc1C(=O)NC1CCN(CCCOc2ccc(F)cc2)CC1OC (stereo not shown) [Cisapride, reference compound]
fasted, conscious dogs
  antral and small bowel contractility, colonic motor activity: dose-dependent stimulation of antral and small bowel contractility with relatively little effect on colonic motor activity
  prokinetic effects in the dog gut: caused prokinetic effects in the dog gut
  migrating motor complex (MMC) characteristics: minimal effect
2D6
  inhibitory activity against 2D6: significant inhibitory activity
[5]; human, 10000 nM
  % IKr control (10,000 nM): 0%
Human 5-HT4 receptor
  Efficacy % of 5HT (serotonin): 77%
[6]
  deaths reported: 80
  serious cardiac arrhythmias reportedly associated: at least 341
5-HT4 Receptor [7]; Guinea Pig Striatum
  nH, Hill coefficient: 0.8
[8]
  part of a dose metabolized by oxidative N-dealkylation or aromatic hydroxylation: More than 90%
[9]; guinea pig
  No Observed Effect Level (NOEL), Combined Parameters: 10 nM

## COc1cc(N)c(Cl)cc1C(=O)N[C@H]1CCN(CCCCCC(=O)O[C@@H]2CN3CCC2CC3)C[C@H]1OC [Compound V]
5-HT4 Receptor [1]
  Ki: 72 nM
[2]; blood
  Half-life: >60 min
[2]; blood, Half-life (min)
  half-life at 100 µM: > 60 min
[3]
  rate of metabolism by esterases in human plasma: undergo a much slower metabolism
[4]
  hydrolysis by esterase in human microsomes: quite stable with time

## COc1cc(N)c(Cl)cc1C(=O)N[C@H]1CCN(CCCCCC(=O)O[C@H]2CN3CCC2CC3)C[C@H]1OC [Compound III, (3R,4S,3′R)-6-[4-(4-Amino-5-chloro-2-methoxy-benzoylamino)-3-methoxy-piperidin-1-yl]-hexanoic acid 1-aza-bicyclo[2.2.2]oct-3-yl ester]
5-HT4 Receptor [1]
  Ki: 28 nM
[2]; blood, Half-life (min)
  half-life at 100 µM: 12 min
[3]
  rate of metabolism by esterases in human plasma: rapidly metabolized by esterases in human plasma
[4]
  hydrolysis by esterase in human microsomes: rapidly hydrolyzed by esterase
[4]; human
  dependence of metabolism on NADPH / CYP450: not dependent on CYP450

## COc1cc(N)c(Cl)cc1C(=O)N[C@@H]1CCN(CCCCCC(=O)O[C@H]2CN3CCC2CC3)C[C@@H]1OC [ATI-7505, (R)-quinuclidin-3-yl 6-((3S,4R)-4-(4-amino-5-chloro-2-methoxybenzamido)-3-methoxypiperidin-1-yl)hexanoate]
CYP3A4
  inhibitory activity against CYP3A4: Neither ATI-7505 nor its primary metabolite, ATI-7500 displayed significant inhibitory activity
fasted, conscious dogs
  antral and small bowel contractility, colonic motor activity: dose-dependent stimulation of antral and small bowel contractility with relatively little effect on colonic motor activity
  prokinetic effects in the dog gut: caused prokinetic effects in the dog gut
  migrating motor complex (MMC) characteristics: minimal effect
fasted, conscious dogs; PO, relative to the controls
  MMC frequency in the proximal small intestine: increased MMC frequency in the proximal small intestine relative to the controls
fasted, conscious dogs; dog, in vivo
  frequency of giant migrating contractions (GMC): small but significant (p<0.05) increase
  potency relative to cisapride on a mg/kg-basis: approximately twice as potent as cisapride
  retrograde giant migrating contractions (RGC): not associated with the development of retrograde giant migrating contractions (RGC)
  tolerability, side effects: exhibited no side effects such as diarrhea, anorexia, or weight loss
2D6; human
  inhibitory activity against 2D6: Neither ATI-7505 nor its primary metabolite, ATI-7500 displayed significant inhibitory activity
5-HT4 Receptor [1]
  Ki: 1.4 nM
[5]
  IC50: 24500 nM
[5]; 10,000 nM, normalized to % control tail IKr
  % IKr control (10,000 nM): 78.0%
[2]; fresh heparinized human blood, Mean ± SD of 3 subjects, 100 μM, 37° C., read-out: Half-life
  half-life at 100 µM: 8.59 ± 0.077 min
[2]; fresh heparinized human blood, Subject 1, 100 μM, 37° C., read-out: Half-life
  half-life at 100 µM: 8.47 min
[2]; fresh heparinized human blood, Subject 2, 100 μM, 37° C., read-out: Half-life
  half-life at 100 µM: 8.61 min
[2]; fresh heparinized human blood, Subject 3, 100 μM, 37° C., read-out: Half-life
  half-life at 100 µM: 8.58 min
Human 5-HT4 receptor
  5-HT4 receptor agonism: highly potent 5-HT4 receptor agonist
  Efficacy % of 5HT (serotonin): 85%
Human 5-HT4 receptor; Potency EC50, concentration causing 50% maximal increase in adenylyl cyclase activity, estimated, unit nM printed in b338 only
  EC50: 4 nM
Human 5-HT4 receptor; Potency pEC50, negative logarithm of the EC50
  EC50: 3.55 nM
Human 5-HT4 receptor; versus ATI-7500
  EC50 fold lower than that of ATI-7500: approximately 100 fold
Human 5-HT4 receptor; versus cisapride
  EC50 fold lower than that of cisapride: approximately 10 fold
[3]
  rate of metabolism by esterases in human plasma: rapidly metabolized by esterases in human plasma
2C9
  inhibitory activity against 2C9: Neither ATI-7505 nor its primary metabolite, ATI-7500 displayed significant inhibitory activity
[4]
  hydrolysis by esterase in human microsomes: rapidly hydrolyzed by esterase
  dependence of metabolism on NADPH / CYP450: not dependent on the presence of NADPH
[4]; human, 2 µM
  biotransformation in pooled human microsomes: undergoes biotransformation to a single metabolite, ATI-7500
[4]; human
  dependence of metabolism on NADPH / CYP450: not dependent on CYP450
5-HT4 Receptor [7]
  IC50: 8.3 nM
  Ki: 1.4 nM
5-HT4 Receptor [7]; Guinea Pig Striatum
  nH, Hill coefficient: 0.7
5-HT4 Receptor [7]; versus cisapride
  affinity for the 5-HT4 receptor, fold greater than cisapride: 18 fold
5-HT4 Receptor [7]; versus major metabolite of ATI-7505
  affinity for the 5-HT4 receptor, fold greater than the major metabolite, the carboxylic acid: at least 360 fold
Fed dogs
  time of MMC return as an index of gastric emptying: significantly shortened the time of MMC return
[9]
  modulation of cardiac electrophysiologic parameters: very weak modulator of cardiac electrophysiologic parameters
[9]; combined set of 6 cardiac parameters
  No Observed Effect Level (NOEL), Combined Parameters: 1,000 nM
[9]; [10]
  No Observed Effect Level (NOEL), AH Interval: >10,000 nM
  No Observed Effect Level (NOEL), HV Interval: 1,000 nM
  No Observed Effect Level (NOEL), MAPD90: 1,000 nM
  No Observed Effect Level (NOEL), QRS Interval: >10,000 nM
  No Observed Effect Level (NOEL), QT Interval: 1,000 nM
  No Observed Effect Level (NOEL), SA Interval: >10,000 nM

## COc1cc(N)c(Cl)cc1C(=O)N[C@@H]1CCN(CCCCCC(=O)O)C[C@@H]1OC [ATI-7500, 6-((3S,4R)-4-(4-amino-5-chloro-2-methoxybenzamido)-3-methoxypiperidin-1-yl)hexanoic acid]
CYP3A4
  inhibitory activity against CYP3A4: Neither ATI-7505 nor its primary metabolite, ATI-7500 displayed significant inhibitory activity
2D6; human
  inhibitory activity against 2D6: Neither ATI-7505 nor its primary metabolite, ATI-7500 displayed significant inhibitory activity
2C9
  inhibitory activity against 2C9: Neither ATI-7505 nor its primary metabolite, ATI-7500 displayed significant inhibitory activity
[4]
  biotransformation in pooled human microsomes: does not appear to be subject to further metabolism
5-HT4 Receptor [7]; Guinea Pig Striatum, [3H]GR113808 (0.70 nM), read-out: IC50
  IC50: > 3000 nM
5-HT4 Receptor [7]; Guinea Pig Striatum, [3H]GR113808 (0.70 nM), read-out: Ki
  Ki: > 500 nM
[9]
  modulation of cardiac electrophysiologic parameters: entirely lacked electrophysiological activity
